In ChEMBL document CHEMBL1127112, “Synthesis and pharmacologic activity of hydroxyacetophenone-substituted benzophenone/xanthone leukotriene B4 receptor antagonists” (Bioorg Med Chem Lett, 1993):

organism: Homo sapiens; test: Compound was evaluated for inhibition of LTB4 induced chemotaxis of human neutrophils; type: functional

Row | Compound | IC50 [µM]
1 | CCc1cc(C(C)=O)c(O)cc1OCCCOc1ccc2c(=O)c3cc(C(=O)O)ccc3oc2c1CCC(=O)O | 0.32
2 | COc1ccc(/C=C/CCCCOc2ccc(C(=O)c3cccc(C(=O)O)c3)cc2CCC(=O)O)cc1 | 6
3 | CCc1cc(C(C)=O)c(O)cc1OCCCOc1ccc(C(=O)c2cccc(C(=O)O)c2)cc1CCC(=O)O | 16
4 | CCc1cc(C(C)=O)c(O)cc1OCCCCCC(C)(C)c1nn[nH]n1 [LY-255283] | 7.4
